Reference: patent US7763645B2, “Carvedilol dihydrogen phosphate monohydrate” (Wanbury Limited, priority 2008, dated 2010)

How the values were obtained:
[1] = Dissolution study of capsule formulation (USP Type 1); assay type: physicochemical; settings: 0.1 N hydrochloric acid; for % Dissolved: 100 rpm
Experimental: The dissolution rate of carvedilol dihydrogen phosphate monohydrate as a capsule formulation was compared with that of carvedilol phosphate hemihydrate similarly prepared.
The samples for the dissolution study were prepared as follows:
Carvedilol phosphate, 25.0 mg, was accurately weighed along with lactose and other fillers. The mix was filled inside a colorless gelatin capsule shell, size #2. Six such capsules were subjected to dissolution studies, each for the monohydrate and hemi-hydrate material.
The intrinsic solubility of the monohydrate form versus the hemihydrate form of carvedilol is done using the general guidelines for characterizing the dissolution rate as per the United States Pharmacopoeia.
The dissolution conditions were:
Medium: 0.1 N hydrochloric acid, 900 ml
Speed of rotations: 100 per minute.
Temp: 37 degree±0.05 degrees.
The percent dissolved: was determined by UV spectrophotometry at a wavelength of 280 nm.

[2] = Hydrate stability: drying at 110° C. and re-exposure to 75% relative humidity at 37° C.; assay type: physicochemical
Experimental: The carvedilol dihydrogen phosphate monohydrate prepared by the present processes is dried till constant weight for 4-10 hours at 40-45° C. under vacuum to obtain carvedilol dihydrogen phosphate monohydrate having bound water content in the range of 3.0-4.0% wt/wt; the theoretical moisture content for carvedilol dihydrogen phosphate monohydrate is 3.54% wt/wt. Further, the bound water content was removed by drying the material at 110° C. till the moisture content below 0.5%. The original moisture content was regained after about 10-15 hours when exposed to 75% relative humidity at 37° C. (in air).

[3] = 10 min, 25.0 mg capsule, 900 ml, 37 degree
[4] = 20 min, 25.0 mg capsule, 900 ml, 37 degree
[5] = 30 min, 25.0 mg capsule, 900 ml, 37 degree
[6] = 45 min, 25.0 mg capsule, 900 ml, 37 degree
[7] = 60 min, 25.0 mg capsule, 900 ml, 37 degree

Row | Time to complete dissolution ([1]; 25.0 mg capsule, 900 ml, 37 degree) | % Dissolved ([1]; 90 min, 25.0 mg capsule, 900 ml, 37 degree) | Time to regain original moisture content ([2]; after drying at 110° C. to moisture below 0.5%, exposed to 75% relative humidity at 37° C. (in air)) | Molecule | % Dissolved [1, 3] | % Dissolved [1, 4] | % Dissolved [1, 5] | % Dissolved [1, 6] | % Dissolved [1, 7] | % Dissolved ([1]; 90 min, 25.0 mg capsule, 900 ml, 37 degree, Phosphate Hemihydrate) | % Dissolved ([1]; 90 min, 25.0 mg capsule, 900 ml, 37 degree, listed as hemihydrate form, Phosphate Hemihydrate) | Rate of dissolution compared with hemihydrate form ([1]; capsule) | Stability of hydrate form ([2]; drying at 110° C., then 75% relative humidity at 37° C. (in air))
1 | – | – | – | Carvedilol Dihydrogen Phosphate Hemihydrate [Hemihydrate form, reference compound] | 45.95% | 63.75% | 68.43% | 75.99% | 82.68% | 88.95% | less than 90% | – | –
2 | ≤ 90 min | 101.55% | 10 to 15 h | COc1ccccc1OCCNCC(O)COc1cccc2[nH]c3ccccc3c12.O=P(O)(O)O (centres unmarked) [Monohydrate form, 1-(9H-carbazol-4-yloxy)-3-[[2-(2-methoxyphenoxy)ethyl]amino]-propan-2-ol] | 46.20% | 68.28% | 82.45% | 95.89% | 96.81% | – | – | faster rate of dissolution than the hemihydrate form | stable and does not convert into the dihydrate or hemihydrate form
